Patent US6642392B1 (priority 1997, dated 2003)

Legend:
Format in all cases: in vivo
Pyricularia oryzae = details: for Test C disease control rating (100 = 100% disease control, 0 = no disease control): rice seedlings sprayed to run-off, inoculated the following day, rating relative to controls, unmarked compounds (standard test rate); for Test C disease control rating: rice blast, 100 = 100% disease control, 0 = no control, unmarked entries (standard test concentration)
Botrytis cinerea = assay: Test E: gray mold, preventive spray on cucumber seedlings; details: for Test E disease control rating (100 = 100% disease control, 0 = no disease control): cucumber seedlings sprayed to run-off, inoculated the following day, rating relative to controls, unmarked compounds (standard test rate); for Test E disease control rating: gray mold on cucumber, 100 = 100% disease control, 0 = no control, unmarked entries (standard test concentration)
Procedure, shortened: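 Preventive spray on cucumber seedlings used a suspension (3% acetone, 250 ppm Trem 014), applied to run-off one day before inoculation with Botrytis cinerea spores. Plants were held 48 h at 20° C in saturated air, then 5 days at 20° C. Percent disease control was scored relative to untreated plants.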

Puccinia recondita = assay: Test B: wheat leaf rust, preventive spray on wheat seedlings; details: for Test B disease control rating (100 = 100% disease control, 0 = no disease control): wheat seedlings sprayed to run-off, inoculated the following day, rating relative to controls, unmarked compounds (standard test rate); for Test B disease control rating: wheat leaf rust, 100 = 100% disease control, 0 = no control, unmarked entries (standard test concentration)
Procedure, shortened: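 Preventive test: P. recondita spores were applied one day after a run-off spray of compound suspension on wheat seedlings. Plants had 24 h at 20 °C in saturated air plus 6 days in a 20 °C growth chamber. Scoring is % disease control (100 = full) relative to controls.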

Phytophthora infestans = details: for Test D disease control rating (100 = 100% disease control, 0 = no disease control): tomato seedlings sprayed to run-off, inoculated the following day, rating relative to controls, unmarked compounds (standard test rate); for Test D disease control rating: tomato late blight, 100 = 100% disease control, 0 = no control, unmarked entries (standard test concentration)
[1] = test system: Eiysiphe graminis f. sp. tritici; assay: Test A: wheat powdery mildew, preventive spray on wheat seedlings; details: for Test A disease control rating (100 = 100% disease control, 0 = no disease control): wheat seedlings sprayed to run-off, inoculated the following day, rating relative to controls, unmarked compounds (standard test rate); for Test A disease control rating: wheat powdery mildew, 100 = 100% disease control, 0 = no control relative to controls, unmarked entries (standard test concentration)
Procedure, shortened: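 Preventive test: seedlings inoculated with powdery mildew spores one day after run-off spraying of a suspension. Ratings after 7 days in a 20° C growth chamber express percent disease control versus controls.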

Row | Compound | Test C disease control rating (100 = 100% disease control, 0 = no disease control) (Pyricularia oryzae) | Test E disease control rating (100 = 100% disease control, 0 = no disease control) (Botrytis cinerea) | Test B disease control rating (100 = 100% disease control, 0 = no disease control) (Puccinia recondita) | Test D disease control rating (100 = 100% disease control, 0 = no disease control) (Phytophthora infestans) | Test A disease control rating (100 = 100% disease control, 0 = no disease control) [1] | Test C disease control rating (Pyricularia oryzae) | Test E disease control rating (Botrytis cinerea) | Test B disease control rating (Puccinia recondita) | Test D disease control rating (Phytophthora infestans) | Test A disease control rating [1]
1 | CCC1(C(=O)NC(C)COc2c(F)cccc2C#N)C(C)C1(Cl)Cl (mixture of isomers) [compound 316] | 53% | 0% | 0% | 0% | 0% |  |  |  |  | 
2 | Cc1c(Br)cc(C#N)n1OCC(C)NC(=O)C(C#N)C(C)(C)C (mixture of isomers) [compound 50] |  |  |  |  |  | 53% | 0% | 28% | 57% | 86%
3 | C=CCc1cccc(C)c1OCC(C)NC(=O)C1(CC)C(C)C1(Cl)Cl (centres unmarked) [compound 119] |  |  |  |  |  | 32% | 0% | 0% | 0% | 31%
4 | C[C@H](COc1ccccc1F)NC(=O)C(C#N)C(C)(C)C (single isomer, unassigned) [2b] |  |  |  |  |  | 100% | 0% | 0% | 0% | 0%
5 | CCc1ccccc1OCC(C)NC(=O)C(C#N)C(C)(C)C (mixture of isomers) [20a] |  |  |  |  |  | 97% | 0% | 0% | 70% | 63%
6 | CCC1(C(=O)NCCCc2ccccc2)C(C)C1(Cl)Cl (centres unmarked) [compound 155] |  |  |  |  |  | 86% | 0% | 0% | 23% | 71%
7 | CCC1(C(=O)NC(C)COc2c(Cl)cccc2C#N)C(C)C1(Cl)Cl (mixture of isomers) [compound 260] | 74% | 83% | 0% | 24% | 0% |  |  |  |  | 
8 | CCCc1ccccc1OCC(C)NC(=O)C1(CC)C(C)C1(Cl)Cl (mixture of isomers) [98a] |  |  |  |  |  | 53% | 0% | 0% | 24% | 0%
9 | CCC1(C(=O)NCCCn2cccc2C#N)C(C)C1(Cl)Cl (centres unmarked) [compound 149] |  |  |  |  |  | 53% | 0% | 27% | 0% | 30%
10 | C#CC(C)(C=C)C(C#N)C(=O)NC(C)COc1cc(F)ccc1Cl (mixture of isomers) [compound 303] | 99% | 0% | 0% | 100% | 0% |  |  |  |  | 
11 | C[C@H](COc1ccc(F)c(F)c1Br)NC(=O)C(C#N)C(C)(C)C (single isomer, unassigned) [187b] |  |  |  |  |  | 94% | 6% | 68% | 91% | 77%
12 | C[C@H](COc1cccc(Cl)c1)NC(=O)C(C#N)C(C)(C)C (single isomer, unassigned) [6e] |  |  |  |  |  | 100% | 70% | 0% | 96% | 0%
13 | CCC1(C(=O)NC(C)COc2cc(Cl)ccc2C#N)C(C)C1(Cl)Cl (centres unmarked) [compound 239] | 97% | 0% | 0% | 88% | 0% |  |  |  |  | 
